# Measurements: PubChem BioAssay AID248 (DTP/NCI, 2004)
# “And” between values parts separate entries of the source, which are not always exact repeats. Equal values may be shown once. Toxic doses and inconclusive results are not listed.
# Test system: L1210 leukemia ip in BDF1 mice, survival T/C
# Assay: NCI In Vivo Anticancer Drug Screen. Data for tumor model L1210 Leukemia (intraperitoneal) in B6D2F1 (BDF1) mice
# Details: endpoint: mean survival time, higher = longer survival
# How it was run: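 Survival endpoint. Drug-treated group vs vehicle group, expressed as T divided by C. Tumor passaged by transplantation.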
# [1] = dose: 100.0 mg/kg/injection, schedule: Q01DX001 (ip), vehicle: Klucel (hydroxypropylcellulose) (HPC)
# [2] = dose: 200.0 mg/kg/injection, schedule: Q01DX001 (ip), vehicle: Klucel (hydroxypropylcellulose) (HPC)
# [3] = dose: 400.0 mg/kg/injection, schedule: Q01DX001 (ip), vehicle: Klucel (hydroxypropylcellulose) (HPC)
# [4] = dose: 50.0 mg/kg/injection, schedule: Q01DX001 (ip), vehicle: carboxymethylcellulose (CMC)
# [5] = dose: 100.0 mg/kg/injection, schedule: Q01DX001 (ip), vehicle: carboxymethylcellulose (CMC)
# [6] = dose: 100.0 mg/kg/injection, schedule: Q01DX001 (ip), vehicle: saline
# [7] = dose: 200.0 mg/kg/injection, schedule: Q01DX001 (ip), vehicle: saline
# [8] = dose: 400.0 mg/kg/injection, schedule: Q01DX001 (ip), vehicle: saline
# [9] = dose: 200.0 mg/kg/injection, schedule: Q01DX001 (ip), vehicle: carboxymethylcellulose (CMC)
# [10] = dose: 400.0 mg/kg/injection, schedule: Q01DX001 (ip), vehicle: carboxymethylcellulose (CMC)
# [11] = dose: 50.0 mg/kg/injection, schedule: Q01DX009 (ip), vehicle: Klucel (hydroxypropylcellulose) (HPC)
# [12] = dose: 100.0 mg/kg/injection, schedule: Q01DX009 (ip), vehicle: Klucel (hydroxypropylcellulose) (HPC)
# [13] = dose: 100.0 mg/kg/injection, schedule: Q04DX003 (ip), vehicle: Klucel (hydroxypropylcellulose) (HPC)
# [14] = dose: 200.0 mg/kg/injection, schedule: Q01DX009 (ip), vehicle: Klucel (hydroxypropylcellulose) (HPC)
# [15] = dose: 200.0 mg/kg/injection, schedule: Q04DX003 (ip), vehicle: Klucel (hydroxypropylcellulose) (HPC)
# [16] = dose: 400.0 mg/kg/injection, schedule: Q01DX009 (ip), vehicle: Klucel (hydroxypropylcellulose) (HPC)
# [17] = dose: 400.0 mg/kg/injection, schedule: Q04DX003 (ip), vehicle: Klucel (hydroxypropylcellulose) (HPC)
structure (smiles),measurement,setting,value
O=C1c2ccccc2C(=O)N1CNc1ccccc1/C(=N/O)c1ccccc1,T/C,"dose: 87.5 mg/kg/injection, schedule: Q01DX009 (ip), vehicle: Klucel (hydroxypropylcellulose) (HPC)",95 % of control
same,T/C,"dose: 175.0 mg/kg/injection, schedule: Q01DX009 (ip), vehicle: Klucel (hydroxypropylcellulose) (HPC)",93 % of control
same,T/C,"dose: 350.0 mg/kg/injection, schedule: Q01DX009 (ip), vehicle: Klucel (hydroxypropylcellulose) (HPC)",93 % of control
CC1(C)C2CC3C(CCC4C(=O)OC(=O)C43)C1C2 (stereo unspecified),T/C,[1],97 % of control
same,T/C,[2],98 % of control
same,T/C,[3],103 % of control
O=C1C2=C(C(=O)c3ccccc31)C1C=CC2CC1,T/C,[4],111 % of control
same,T/C,[5],101 % of control
OC(CCl)C(O)C(O)C(O)CCl (stereo unspecified),T/C,"dose: 44.0 mg/kg/injection, schedule: Q01DX001 (ip), vehicle: saline",103 % of control
same,T/C,"dose: 66.0 mg/kg/injection, schedule: Q01DX001 (ip), vehicle: saline",103 % of control
same,T/C,"dose: 100.0 mg/kg/injection, schedule: Q01DX001 (ip), vehicle: saline with Tween-80",95 % of control
same,T/C,[6],103 % of control
same,T/C,"dose: 150.0 mg/kg/injection, schedule: Q01DX001 (ip), vehicle: saline",96 % of control
same,T/C,"dose: 200.0 mg/kg/injection, schedule: Q01DX001 (ip), vehicle: saline with Tween-80",92 % of control
same,T/C,[7],101 % of control
same,T/C,"dose: 400.0 mg/kg/injection, schedule: Q01DX001 (ip), vehicle: saline with Tween-80",89 % of control
same,T/C,[8],97 % of control
C#C/C=C/CC1OC(C(Br)CC)CC2OC1CC2Br (stereo unspecified),T/C,"dose: 75.0 mg/kg/injection, schedule: Q01DX001 (ip), vehicle: carboxymethylcellulose (CMC)",94 % of control
same,T/C,"dose: 150.0 mg/kg/injection, schedule: Q01DX001 (ip), vehicle: carboxymethylcellulose (CMC)",96 % of control
same,T/C,"dose: 300.0 mg/kg/injection, schedule: Q01DX001 (ip), vehicle: carboxymethylcellulose (CMC)",96 % of control
CCc1ccc([N+](=O)[O-])cc1,T/C,[5],95 % of control
same,T/C,[9],103 % of control
same,T/C,[10],97 % of control
CCC[CH2][Sn]([Br])([CH2]CCC)[CH2]CCC,T/C,"dose: 3.13 mg/kg/injection, schedule: Q01DX009 (ip), vehicle: carboxymethylcellulose (CMC)",93 % of control and 103 % of control
same,T/C,"dose: 6.25 mg/kg/injection, schedule: Q01DX009 (ip), vehicle: carboxymethylcellulose (CMC)",103 % of control (2×) and 104 % of control
same,T/C,"dose: 6.25 mg/kg/injection, schedule: Q04DX003 (ip), vehicle: carboxymethylcellulose (CMC)",96 % of control
same,T/C,"dose: 12.5 mg/kg/injection, schedule: Q01DX009 (ip), vehicle: carboxymethylcellulose (CMC)",93 % of control and 101 % of control and 103 % of control
same,T/C,"dose: 12.5 mg/kg/injection, schedule: Q04DX002 (ip), vehicle: carboxymethylcellulose (CMC)",92 % of control and 103 % of control
same,T/C,"dose: 12.5 mg/kg/injection, schedule: Q04DX003 (ip), vehicle: carboxymethylcellulose (CMC)",107 % of control
same,T/C,"dose: 25.0 mg/kg/injection, schedule: Q04DX002 (ip), vehicle: carboxymethylcellulose (CMC)",93 % of control and 98 % of control
O=C(O)C(Br)CF (stereo unspecified),T/C,"dose: 100.0 mg/kg/injection, schedule: Q04DX002 (ip), vehicle: saline",93 % of control
same,T/C,"dose: 200.0 mg/kg/injection, schedule: Q04DX002 (ip), vehicle: saline",97 % of control
same,T/C,"dose: 400.0 mg/kg/injection, schedule: Q04DX002 (ip), vehicle: saline",87 % of control
O=NN(CCCl)C(=O)Nc1ccc(Br)cc1,T/C,"dose: 12.0 mg/kg/injection, schedule: Q01DX009 (ip), vehicle: carboxymethylcellulose (CMC)",122 % of control
same,T/C,"dose: 12.0 mg/kg/injection, schedule: Q01DX015 (ip), vehicle: carboxymethylcellulose (CMC)",124 % of control
same,T/C,"dose: 29.0 mg/kg/injection, schedule: Q01DX015 (ip), vehicle: carboxymethylcellulose (CMC)",154 % of control
same,T/C,"dose: 44.0 mg/kg/injection, schedule: Q01DX015 (ip), vehicle: carboxymethylcellulose (CMC)",114 % of control and 89 % of control
same,T/C,[5],157 % of control
Cc1ccc2c3c(c(=O)oc2c1)CCCC3,T/C,[4],96 % of control
same,T/C,[5],112 % of control
same,T/C,[9],100 % of control
same,T/C,[10],108 % of control
CC1=NCCCN=C(C)C(C)=NCCCN=C1C.[Br][Co][Br],T/C,"dose: 25.0 mg/kg/injection, schedule: Q01DX009 (ip), vehicle: Klucel (hydroxypropylcellulose) (HPC)",100 % of control
same,T/C,[11],96 % of control
same,T/C,[12],95 % of control
same,T/C,[13],106 % of control
same,T/C,[14],110 % of control
same,T/C,[15],90 % of control
O=c1[nH]c2ccccc2n1C1OC(CO)C(O)C1O (stereo unspecified),T/C,[6],98 % of control
same,T/C,[7],93 % of control
same,T/C,[8],100 % of control
Nc1c(Br)cc(Br)c(C(=O)O)c1Br,T/C,[11],103 % of control
same,T/C,[12],101 % of control
same,T/C,[14],95 % of control
CCCCOP(=O)(Cc1ccc(Cl)cc1Cl)OCCCC,T/C,"dose: 100.0 mg/kg/injection, schedule: Q04DX002 (ip), vehicle: saline with Tween-80",109 % of control
same,T/C,"dose: 200.0 mg/kg/injection, schedule: Q04DX002 (ip), vehicle: saline with Tween-80",109 % of control
same,T/C,"dose: 400.0 mg/kg/injection, schedule: Q04DX002 (ip), vehicle: saline with Tween-80",98 % of control
CCOC(=O)C(C)C(O)c1ccc(OC)cc1 (stereo unspecified),T/C,"dose: 100.0 mg/kg/injection, schedule: Q01DX009 (ip), vehicle: saline with Tween-80",93 % of control
same,T/C,"dose: 200.0 mg/kg/injection, schedule: Q01DX009 (ip), vehicle: saline with Tween-80",93 % of control
COc1ccc(-c2ccccc2)cc1SCCC(=O)O,T/C,[4],114 % of control
same,T/C,[5],101 % of control
same,T/C,[9],97 % of control
same,T/C,[10],95 % of control
Cc1cc(C)c2[nH]c(=O)cc(C)c2c1,T/C,"dose: 100.0 mg/kg/injection, schedule: Q01DX001 (ip), vehicle: other",97 % of control and 98 % of control
same,T/C,"dose: 200.0 mg/kg/injection, schedule: Q01DX001 (ip), vehicle: other",97 % of control and 95 % of control
same,T/C,"dose: 400.0 mg/kg/injection, schedule: Q01DX001 (ip), vehicle: other",108 % of control and 95 % of control
Brc1c(-c2ccccc2)cc(-c2ccccc2)cc1-c1ccccc1,T/C,[12],93 % of control
same,T/C,[13],91 % of control
same,T/C,[14],93 % of control
same,T/C,[15],93 % of control
same,T/C,[16],96 % of control
same,T/C,[17],91 % of control
CC1(C)CC(=O)CCS1,T/C,[12],102 % of control
same,T/C,[13],105 % of control
same,T/C,[14],96 % of control
same,T/C,[15],98 % of control
same,T/C,[16],104 % of control
same,T/C,[17],100 % of control
CCOC(=O)c1c(C)cn2c1OC(C)CC2(C)C (stereo unspecified),T/C,[1],105 % of control
same,T/C,[2],94 % of control
same,T/C,[3],96 % of control
S=C=NCc1ccc(Br)cc1,T/C,"dose: 1.25 mg/kg/injection, schedule: Q01DX009 (ip), vehicle: other",95 % of control
same,T/C,"dose: 2.5 mg/kg/injection, schedule: Q01DX009 (ip), vehicle: other",100 % of control
same,T/C,"dose: 2.5 mg/kg/injection, schedule: Q04DX003 (ip), vehicle: other",103 % of control
same,T/C,"dose: 5.0 mg/kg/injection, schedule: Q01DX009 (ip), vehicle: other",97 % of control
same,T/C,"dose: 5.0 mg/kg/injection, schedule: Q04DX003 (ip), vehicle: other",103 % of control
same,T/C,"dose: 10.0 mg/kg/injection, schedule: Q01DX001 (ip), vehicle: other",93 % of control
same,T/C,"dose: 10.0 mg/kg/injection, schedule: Q04DX003 (ip), vehicle: other",88 % of control
O=C(O)CC(Nc1ccc([N+](=O)[O-])cc1[N+](=O)[O-])C(=O)O (stereo unspecified),T/C,"dose: 100.0 mg/kg/injection, schedule: Q04DX003 (ip), vehicle: saline",96 % of control
same,T/C,"dose: 200.0 mg/kg/injection, schedule: Q04DX003 (ip), vehicle: saline",100 % of control
same,T/C,"dose: 400.0 mg/kg/injection, schedule: Q04DX003 (ip), vehicle: saline",120 % of control
